Key:
[1] = target: Tat-derived oligourea (unnatural urea backbone carrying Tat 48-57 side chains) (HIV-1) (UniProt P04608); assay: EMSA
[2] = tested on: Tat peptide (47-57), arginine-rich RNA-binding domain (HIV-1); assay: EMSA; details: printed 0.78+0.05; same conditions as the oligourea
[3] = target: HIV-1 TAR RNA (wild-type); assay: Direct and competition electrophoretic mobility assays, oligourea/peptide-TAR RNA complexes; assay type: binding; details: for Kd: multiple sets of experiments, read-out: KD (equilibrium dissociation constant) for TAR RNA
Source text: (§1) FIG. 2A: Secondary structure of wild-type TAR RNA used in this study. Wild-type TAR RNA spans the minimal sequences that are required for Tat responsiveness in vivo ^14 and for in vitro binding of Tat-derived peptides.^9 Wild-type TAR contains two non-wild-type base pairs to increase transcription by T7 RNA polymerase. Mutant M0 TAR contained no bulge residue in its sequence. In mutant G26C, a base-pair in the upper stem of TAR RNA, G26-C39 was substituted by C26-G39. FIG. 2B: Electrophoretic mobility shift analysis for the Tat-derived oligourea binding to wild-type and trinucleotide bulge mutant (M0) TAR RNA. 5′-end labeled TAR RNAs (40 nM) were heated to 85° C. for three minutes mm and then cooled to room temperature in TK buffer (50 mM Tris-HCl pH 7.4), 20 mM KCl, 0.1% Triton X-100). The oligourea (150 nM) was added to wild-type or mutant TAR and incubated at room temperature for one hour. After adding 30% glycerol, the oligourea-RNA complexes were resolved on a non-denaturing 12% acrylamide gel and visualized by autoradiography or phosphorimaging. FIG. 2C: Specificity of the oligourea-TAR complex formation determined by competition experiments. Oligourea-RNA complexes were formed in the presence of increasing concentrations of unlabeled wild-type or mutant TAR RNAs. Concentrations of the competitor RNAs in lanes 3, 4, 5, 6 were 50, 100, 150, and 200 nM, respectively. Lanes 1 and 2 were marker lanes showing RNA and oligoureaRNA complexes. Oligourea-RNA complexes are labeled as R—P.
To compare the RNA-binding affinities of the oligourea to natural peptide, we synthesized a tat-derived peptide (Tyr47 to Arg57) containing the RNA-binding domain of Tat protein (FIG. 1). Dissociation constants of the Tat peptide-RNA complexes were determined from multiple sets of experiments under the same conditions used for oligourea-TAR RNA complexes. […] A relative dissociation constant (KREL) can be determined by measuring the ratios of wild-type Tat peptide to the oligourea dissociation constants (KD) for TAR RNA.

proteinase K [4] = target: T1, proteinase K (Parengyodontium album, UniProt P06873); details: similar proteinase K treatment; cited from earlier work
T1 sequence (P06873 106-384): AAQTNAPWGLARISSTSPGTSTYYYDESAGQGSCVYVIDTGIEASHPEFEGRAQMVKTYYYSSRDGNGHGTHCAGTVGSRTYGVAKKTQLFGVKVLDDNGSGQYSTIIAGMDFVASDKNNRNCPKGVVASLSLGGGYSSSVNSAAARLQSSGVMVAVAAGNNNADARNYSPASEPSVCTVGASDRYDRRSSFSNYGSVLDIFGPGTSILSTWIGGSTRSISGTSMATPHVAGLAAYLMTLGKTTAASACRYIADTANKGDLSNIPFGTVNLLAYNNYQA

[5] = tested on: HIV-1 TAR RNA (wild-type); assay: Specificity of oligourea-TAR complex formation by competition with unlabeled TAR RNAs; assay type: binding
Source text: as §1
Specificity of the oligourea-TAR RNA complex formation was addressed by competition experiments (FIG. 2c).
Two base-pairs immediately above the pyrimidine bulge are critical for Tat recognition.^9 To determine whether the oligourea recognizes specific base-pairs in the stem region of TAR RNA or only a trinucleotide bulge containing RNA, we synthesized a TAR mutant where the G26-C39 base pair was substituted by a C26-G39 base-pair (FIG. 2a).

proteinase K [6] = target: T1, proteinase K; assay: Proteinase K digestion of RNA crosslink products (protease stability); assay type: in vitro ADME; details: 55° C., fifteen minutes after UV irradiation
Experimental: FIG. 3. Site-specific photocrosslinking reaction of TAR RNA labeled with 4-thioUracil at position 23 with the oligourea. For photochemical reactions, RNA duplex was prepared by hybridizing two strands.^5,7 Strand 1 of the duplex was 5′-end labeled with 32p Preformed RNA duplexes (40 nM) in the absence or presence of the oligourea (100 nM) were irradiated ([…]) and analyzed by denaturing gels as described earlier.^5,7 Proteinase K digestion was performed at 55° C. for fifteen minutes after LW irradiation. R—R and R—P XL indicate the RNA—RNA and RNA-oligourea crosslink, respectively.
To probe the oligourea-RNA interactions and determine the proteolysis stability of oligourea, we synthesized TAR RNA containing 4-thioU at position 23 and performed photocrosslinking experiments as described earlier (FIG. 3).^5,7 Irradiation of the oligourea-RNA complex yields a new band with electrophoretic mobility less than that of the RNA (lane 4). Both the oligourea and UV (360 nm) irradiation are required for the formation of this crosslinked RNA-oligourea complex (see lanes 3 and 4). Since the crosslinked oligourea-RNA complex is stable to alkaline pH (9.5), high temperature (85° C.) and denaturing conditions (8M urea, 2% SDS), we conclude that a covalent bond is formed between TAR RNA and the oligourea during the crosslinking reaction.

[7] = tested on: mutant TAR RNA without the bulge residues (M0); assay: Electrophoretic mobility shift analysis with trinucleotide bulge mutant (M0) TAR RNA; assay type: binding, HIV-1; details: M0 TAR RNA 40 nM, oligourea 150 nM
Source text: as §1, with “Lanes 1 and 2 were marker lanes showing RNA and oligoureaRNA complexes. Oligourea-RNA complexes are labeled as R—P.” left out

[8] = tested on: Tat transactivation (HIV-1 LTR); assay: Inhibition of Tat transactivation, CAT activity from integrated HIV-1 LTR of HL3TI cells; assay type: cell-based; details: luciferase as control
Experimental: FIG. 4. […] CAT activity expressed from the integrated HIV-1 LTR of HL3TI Cells with increasing amounts of oligourea is shown. Luciferase activity was a control experiment to monitor the transfection inhibition of pSV2Tat by the addition of oligourea. CAT and Luciferase activities were measured from multiple experiments and normalized to 100%.

Substance: wild-type TAR RNA
- Kd [1]: 0.11 µM
- Kd [2]: 0.78 µM

Substance: Tat peptide (47–57): tat-derived peptide (Tyr47 to Arg57) containing the RNA-binding domain of Tat protein [reference compound]
- Kd ([3]; wild-type TAR RNA): 0.78 µM

Substance: Tat: Tat of the Tat-TAR photocrosslink products from earlier cited work (ref. 5)
- stability of Tat-TAR photocrosslink products to proteinase K treatment (proteinase K [4]): complete loss of RNA-protein crosslink

Substance: GRKKRRQRRR [oligourea]
- competition by mutant TAR (G26C) for oligourea binding to TAR RNA ([5]; competitor G26C TAR RNA (G26-C39 replaced by C26-G39)): did not inhibit
- competition by mutant TAR RNA without a trinucleotide bulge for oligourea binding to wild-type TAR RNA ([5]; competitor M0 TAR RNA 50-200 nM): not able to compete
- competition by mutant TAR RNA with one base bulge for oligourea binding to wild-type TAR RNA ([5]; competitor one base bulge TAR RNA, data not shown): not able to compete
- oligourea-RNA complex formation on addition of unlabeled wild-type TAR RNA ([5]; competitor wild-type TAR RNA 50-200 nM): inhibited
- stability of RNA crosslink products to proteinase K digestion (proteinase K [6]): completely stable
- relative dissociation constant KREL (ratio of wild-type Tat peptide KD to oligourea KD for TAR RNA) ([3]; wild-type TAR RNA): 7.09
- binding to TAR RNA (mobility shift) ([3]; wild-type TAR RNA 40 nM, oligourea 150 nM): able to bind TAR RNA
- Kd ([3]; wild-type TAR RNA): 0.11 ± 0.07 µM
- binding to mutant TAR RNA without the bulge residues [7]: failed to bind
- Tat transactivation (CAT activity) with increasing amounts of oligourea [8]: Inhibition of Tat transactivation

Source: US7056656B1, “Tat-derived oligourea and its method of production and use in high affinity and specific binding HIV-1 TAR RNA” (priority 1999, dated 2006)
